Laboratory results reported in patent US6586369B1, “Fungicidal agents containing pyrrolidones as their active agents and use thereof for treating plants” (BASF Aktiengesellschaft, priority 2000, dated 2003).

Columns and labels:
harmful fungi = test: Fungicidal activity, general statement, no test named; details: no test conditions given

| melting point [°C] | Compound | fungicidal activity (in words) (harmful fungi) |
| --- | --- | --- |
| 178 to 180 | C[S+]([O-])C1=C(c2ccccc2)C(=O)N(Nc2ccccc2)C1=O (stereo not shown) [No. 1042, 1-Anilino-3-methylsulfinyl-4-phenylpyrrol-2,5-dione] | – |
| 148 to 149 | O=C1C(Br)=C(c2ccccc2)C(=O)N1Nc1ccccc1 [No. 486, 1-Anilino-3-bromo-4-phenylpyrrol-2,5-dione] | – |

| Compound | melting point [°C] | fungicidal activity (in words) (harmful fungi) |
| --- | --- | --- |
| O=C1C(Cl)=C(c2ccccc2)C(=O)N1Nc1ccccc1 [No. 1, 1-Anilino-3-chloro-4-phenylpyrrol-2,5-dione] | 143 to 145 | excellent fungicidal activity |
